Experimental data taken from patent EP4778929A1, “NOVEL TYPE I TOPOISOMERASE INHIBITOR, AND PREPARATION METHOD THEREFOR AND USE THEREOF” (priority 2023, dated 2025).

How the values were obtained:
[1] = tested on: HCT116 cells; assay: Inhibition of cell proliferation by CTG (CellTiter-Glo) luminescence assay; type: cell-based; details: Homo sapiens, HCT-116, 72 h, read-out: HCT116, IC50
In short: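 Nine-point 1:3 dilutions applied to HCT116 cells (2 000/well, McCoy's 5a + 10 % FBS) for 72 h at 37 °C, final DMSO 0.25 %. Viability read by CellTiter-Glo luminescence; % inhibition versus DMSO controls fitted to four-parameter logistic for IC50.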

[2] = tested on: Human colon cancer HCT116 cells; assay: Subcutaneous xenograft model of human colon cancer HCT-116 cells; type: in vivo, BALB/c nude mice; details: day 21 post-treatment, 5 mg/kg, IV, BIW×3W
Procedure: Test Example 4. Pharmacodynamic Evaluation of Compound 2, Compound 250, and Compound 253 in a Subcutaneous Xenograft Model of Human Colon Cancer HCT-116 Cells in BALB/c Female Nude Mice
Human colon cancer HCT116 cells were cultured in vitro as monolayers in McCoys 5a medium supplemented with 10% fetal bovine serum and 1% penicillin/streptomycin/amphotericin B at 37 °C in a 5% CO2 incubator. Cells were routinely passaged twice a week using trypsin-EDTA digestion. When cells reached 80%-90% confluence and the required cell number was achieved, cells were harvested. HCT116 cells (0.1 mL, 5×10^6 cells) were subcutaneously inoculated into the right dorsal region near the upper forelimb of each mouse (BALB/c nude mice, female, 6-8 weeks old). Treatment was initiated when the average tumor volume reached approximately 158 mm^3. Tumor volume was measured twice weekly. At the end of the experiment, the tumor growth inhibition rate (TGI) was calculated as: TGI (%) = [1 - (average tumor volume at the end of treatment in a particular group - average tumor volume at the start of treatment in that group) / (average tumor volume at the end of treatment in the vehicle control group - average tumor volume at the start of treatment in the vehicle control group)] × 100%.
(§1) Experimental Groups and Dosing Regimen:
• 1, Vehicle control group • 2, Compound 2, 5 mg/kg, IV, BIW×3W • 3, Compound 250, 5 mg/kg, IV, BIW×3W • 4, Compound 253, 5 mg/kg, IV, BIW×3W

[3] = tested on: Human colon cancer CR00090 cells; assay: CR00090 human colon cancer model (subcutaneous); type: in vivo, NPSG mice; details: day 28 post-treatment, 5 mg/kg, IV, BIW×4W
Procedure: Test Example 5: Pharmacodynamic Evaluation of Compound 117, Compound 250, and Compound 253 in the CR00090 Human Colon Cancer Model
Human colon cancer CR00090 cells were thawed, counted, and mixed with Matrigel at a 1:1 ratio. Then, 0.1 mL (5×10^5 cells) of CR00090 cells were subcutaneously inoculated into the right dorsal region near the upper forelimb of each mouse (NPSG mice, female, 6-8 weeks old). Treatment was initiated when the average tumor volume reached approximately 84 mm^3. Tumor volume was measured twice weekly. At the end of the experiment, the tumor growth inhibition rate (TGI) was calculated as: TGI (%) = [1 - (average tumor volume at the end of treatment in a particular group - average tumor volume at the start of treatment in that group) / (average tumor volume at the end of treatment in the vehicle control group - average tumor volume at the start of treatment in the vehicle control group)] × 100%.
as §1
• 1, Vehicle control group • 2, Compound 117, 5 mg/kg, IV, BIW×4W • 3, Compound 250, 5 mg/kg, IV, BIW×4W • 4, Compound 253, 5 mg/kg, IV, BIW×4W

Structure (SMILES) | IC50 [1] [nM] | TGI [2] [%] | tumor volume ([2]; vehicle control 1146 mm^3) [mm^3] | TGI [3] [%] | tumor volume ([3]; vehicle control 1093 mm^3) [mm^3]
CC[C@@]1(O)C(=O)OCc2c1cc1n(c2=O)Cc2c-1c(=O)c1cc(F)cc(C)c1n2C [Example 2, (S)-4-ethyl-8-fluoro-4-hydroxy-10,11-dimethyl-1,12-dihydro-14H-pyrano[3,4:6,7]indolizino[2,1-b]quinoline-3,6,14(4H,11H)-trione] | < 20 | 81.9 | 335 |  | 
CC[C@@]1(O)C(=O)OCc2c1cc1n(c2=O)Cc2c-1c(=O)c1cc(F)ccc1n2CCN(C)C1CCCC1 [Example 117] | < 20 |  |  | 82.4 | 262
